Results taken from patent publication US8741923B2, “Oxadiazole fused heterocyclic derivatives useful for the treatment of multiple sclerosis” (Merck Serono SA, priority 2008, dated 2014).

Biological target: T1, S1P1 (Homo sapiens (Human), UniProt P21453)
Assay: Receptor binding assay ([33P]sphingosine 1-phosphate, SPA) on S1P1 membranes
Settings: membranes from CHO cells expressing S1P1
Method: (§1) Receptor binding assay: Membranes were prepared from CHO cells expressing S1P1 or S1P3 for use in ligand and 35S-GTPγS binding studies. Cells were suspended in 50 mM TRIS, pH 7.4, 2 mM EDTA, 250 mM Sucrose (buffer A) and 1× Complete protease inhibitor cocktail (Roche), and disrupted at 4° C. by N2 decompression using a cell disruption bomb (Parr Instrument). Following centrifugation at 1000 RPM for 10 min at 4° C., the supernatant was suspended in buffer A and centrifuged again at 19000 RPM for 60 min at 4° C. The pellet was then suspended in 10 mM HEPES, pH 7.4, 1 mM EDTA, 250 mM Sucrose (Buffer B), and 1× Complete EDTA-free protease inhibitor cocktail and homogenized using a potter. Membranes were flash frozen in liquid N2 and stored at −80° C. [33P]sphingosine 1-phosphate (3000 Ci/mmol; American Radiolabeled Chemicals, Inc.) was added to test compounds in DMSO. Membranes and WGA SPA beads (GE Healthcare) were added to give a final volume of 100 μl in 96-well plates with assay concentrations of 25 μM or 10 μM [33P]sphingosine 1-phosphate (respectively for S1P1 or S1P3), 50 mM HEPES, pH 7.5, 5 mM MgCl2, 100 mM NaCl, 0.4% fatty acid-free BSA, 1-5 μg/well of proteins and 100 μg/well of WGA SPA beads. Binding was performed for 60 min at RT on a shaker and bound radioactivity was measured on a PerkinElmer 1450 MicroBeta counter. Specific binding was calculated by subtracting remaining radioactivity in the presence of 1000-fold excess of unlabeled S1P. Binding data were analyzed using the GraphPad Prism program.

T1 sequence (P21453 whole entry, species assumed): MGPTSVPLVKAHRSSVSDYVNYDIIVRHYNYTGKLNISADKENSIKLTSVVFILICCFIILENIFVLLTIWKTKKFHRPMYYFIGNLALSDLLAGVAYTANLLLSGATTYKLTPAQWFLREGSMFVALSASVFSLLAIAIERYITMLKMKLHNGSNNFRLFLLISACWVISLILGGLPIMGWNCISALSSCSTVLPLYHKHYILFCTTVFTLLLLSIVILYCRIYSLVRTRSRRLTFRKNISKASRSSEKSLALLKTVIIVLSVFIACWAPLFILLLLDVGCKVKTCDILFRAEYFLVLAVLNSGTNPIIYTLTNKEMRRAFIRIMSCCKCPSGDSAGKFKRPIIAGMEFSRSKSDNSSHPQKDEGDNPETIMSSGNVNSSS

Row | Compound | Ki [nM]
1 | Cc1cc(-c2nc(-c3ccc4[nH]cnc4c3)no2)cnc1N1CCCCC1C (stereo not shown) [Compound 3, 5-{5-[5-methyl-6-(2-methylpiperidin-1-yl)pyridin-3-yl]-1,2,4-oxadiazol-3-yl}-1H-benzimidazole] | 38
2 | COCc1cc(-c2nc(-c3ccc4c(c3)CN(CCC(=O)O)CC4)no2)ccc1-c1ccccc1C [Compound 35, 3-[7-{5-[2-(methoxymethyl)-2′-methylbiphenyl-4-yl]-1,2,4-oxadiazol-3-yl}-3,4-dihydroisoquinolin-2(1H)-yl]propanoic acid] | 0.23
3 | Cc1ccccc1-c1ccc(-c2nc(-c3ccc4c(c3)CN(CC(=O)O)CC4)no2)cc1C(F)(F)F [Compound 36, [7-{5-[2′-methyl-2-(trifluoromethyl)biphenyl-4-yl]-1,2,4-oxadiazol-3-yl}-3,4-dihydroisoquinolin-2(1H)-yl]acetic acid] | 0.49
4 | CC1CCCCN1c1ccc(-c2nc(-c3ccc4c(c3)CN(CCC(=O)O)CC4)no2)cc1C(F)(F)F (stereo not shown) [Compound 37, 3-[7-{5-[4-(2-methylpiperidin-1-yl)-3-(trifluoromethyl)phenyl]-1,2,4-oxadiazol-3-yl}-3,4-dihydroisoquinolin-2(1H)-yl]propanoic acid] | 0.75
5 | CC1CCCCN1c1ccc(-c2nc(-c3ccc4c(c3)CN(CC(=O)O)CC4)no2)cc1C(F)(F)F (stereo not shown) [Compound 38, [7-{5-[4-(2-methylpiperidin-1-yl)-3-(trifluoromethyl)phenyl]-1,2,4-oxadiazol-3-yl}-3,4-dihydroisoquinolin-2(1H)-yl]acetic acid] | 0.8
6 | Cc1ccccc1-c1ccc(-c2nc(-c3ccc4c(c3)CN(CCC(=O)O)CC4)no2)cc1C(F)(F)F [Compound 39, 3-[7-{5-[2′-methyl-2-(trifluoromethyl)biphenyl-4-yl]-1,2,4-oxadiazol-3-yl}-3,4-dihydroisoquinolin-2(1H)-yl]propanoic acid] | 0.6
7 | COCc1cc(-c2nc(-c3ccc4c(c3)CCN(CCC(=O)O)C4)no2)ccc1-c1ccccc1C [Compound 40, 3-{6-[5-(2-Methoxymethyl-2′-methyl-biphenyl-4-yl)-[1,2,4]oxadiazol-3-yl]-3,4-dihydro-1H-isoquinolin-2-yl}-propionic acid] | 1.1

Biological target: T1, S1P1
Assay: 35S-GTPγS binding, S1P1 membranes
Assay type: biochemical
Settings: membranes from CHO cells expressing S1P1
Method: as §1, with “Membranes and WGA SPA beads (GE Healthcare) were added to give a final volume of 100 μl in 96-well plates with assay concentrations of 25 μM or 10 μM [33P]sphingosine 1-phosphate (respectively for S1P1 or S1P3), 50 mM HEPES, pH 7.5, 5 mM MgCl2, 100 mM NaCl, 0.4% fatty acid-free BSA, 1-5 μg/well of proteins and 100 μg/well of WGA SPA beads. Binding was performed for 60 min at RT on a shaker and bound radioactivity was measured on a PerkinElmer 1450 MicroBeta counter.” left out
Measurements of 35S-GTPγS Binding:
After 60 min incubation at 30° C. on a shaker, plates were centrifuged for 10 min at 2000 RPM. […] Triplicate samples were averaged and expressed as % response relative to S1P activation in absence of compound (n=2).

Row | Compound | EC50 [nM]
8 | CC1CCCCN1c1ccc(-c2nc(-c3ccc4[nH]cnc4c3)no2)cc1C#N (stereo not shown) [Compound 2, 5-[3-(1H-benzimidazol-5-yl)-1,2,4-oxadiazol-5-yl]-2-(2-methylpiperidin-1-yl)benzonitrile] | 10
9 | Cc1cc(-c2nc(-c3ccc4[nH]cnc4c3)no2)cnc1N1CCCCC1C (stereo not shown) [Compound 3, 5-{5-[5-methyl-6-(2-methylpiperidin-1-yl)pyridin-3-yl]-1,2,4-oxadiazol-3-yl}-1H-benzimidazole] | 94
10 | COCc1cc(-c2nc(-c3ccc4[nH]cnc4c3)no2)ccc1N1CCCCC1C (stereo not shown) [Compound 6, 5-{5-[3-(methoxymethyl)-4-(2-methylpiperidin-1-yl)phenyl]-1,2,4-oxadiazol-3-yl}-1H-benzimidazole] | 2.5
11 | CC1CCCCN1c1ccc(-c2nc(-c3cc(F)c4[nH]cnc4c3)no2)cc1C(F)(F)F (stereo not shown) [Compound 7, 7-fluoro-5-{5-[4-(2-methylpiperidin-1-yl)-3-(trifluoromethyl)phenyl]-1,2,4-oxadiazol-3-yl}-1H-benzimidazole] | 14
12 | Cc1cc(-c2noc(-c3ccc(N4CCCCC4C)c(C(F)(F)F)c3)n2)cc2nc[nH]c12 (stereo not shown) [Compound 8, 7-methyl-5-{5-[4-(2-methylpiperidin-1-yl)-3-(trifluoromethyl)phenyl]-1,2,4-oxadiazol-3-yl}-1H-benzimidazole] | 7
13 | COCc1cc(-c2nc(-c3cc(F)c4[nH]cnc4c3)no2)ccc1-c1ccccc1C [Compound 9, 7-fluoro-5-{5-[2-(methoxymethyl)-2′-methylbiphenyl-4-yl]-1,2,4-oxadiazol-3-yl}-1H-benzimidazole] | 0.5
14 | Cc1cc(-c2nc(-c3ccc4c(c3)CN(C(=O)OC(C)(C)C)CC4)no2)cnc1N1CCCC1C (stereo not shown) [Compound 13, tert-butyl 7-{5-[5-methyl-6-(2-methylpyrrolidin-1-yl)pyridin-3-yl]-1,2,4-oxadiazol-3-yl}-3,4-dihydroisoquinoline-2(1H)-carboxylate] | > 20000
15 | Cc1cc(-c2nc(-c3ccc4c(c3)CNCC4)no2)cnc1N1CCCC1C (stereo not shown) [Compound 14, 7-{5-[5-methyl-6-(2-methylpyrrolidin-1-yl)pyridin-3-yl]-1,2,4-oxadiazol-3-yl}-1,2,3,4-tetrahydroisoquinoline] | 64
16 | Cc1ccccc1-c1ccc(-c2nc(-c3ccc4c(ccn4C)c3)no2)cc1C [Compound 17, 5-[5-(2,2′-dimethylbiphenyl-4-yl)-1,2,4-oxadiazol-3-yl]-1-methyl-1H-indole] | 1330
17 | Cc1ccccc1-c1ccc(-c2nc(-c3ccc4c(ccn4CC(=O)O)c3)no2)cc1C [Compound 18, {5-[5-(2,2′-dimethylbiphenyl-4-yl)-1,2,4-oxadiazol-3-yl]-1H-indol-1-yl}acetic acid] | 3030
18 | CC1CCCCN1c1ccc(-c2nc(-c3ccc4c(ccn4C)c3)no2)cc1[N+](=O)[O-] (stereo not shown) [Compound 19, 1-methyl-5-{5-[4-(2-methylpiperidin-1-yl)-3-nitrophenyl]-1,2,4-oxadiazol-3-yl}-1H-indole] | 1270
19 | COc1cc2[nH]c(C(=O)O)cc2cc1-c1noc(-c2ccc(N3CCCCC3C)c(C(F)(F)F)c2)n1 (stereo not shown) [Compound 21, 6-methoxy-5-{5-[4-(2-methylpiperidin-1-yl)-3-(trifluoromethyl)phenyl]-1,2,4-oxadiazol-3-yl}-1H-indole-2-carboxylic acid] | 468
20 | CC1CCCCN1c1ccc(-c2nc(-c3ccc4[nH]ccc4c3)no2)cc1C#N (stereo not shown) [Compound 23, 5-[3-(1H-indol-5-yl)-1,2,4-oxadiazol-5-yl]-2-(2-methylpiperidin-1-yl)benzonitrile] | 42
21 | COCc1cc(-c2nc(-c3cc(C)c4[nH]cnc4c3)no2)ccc1-c1ccccc1C [Compound 26, 5-{5-[2-(methoxymethyl)-2′-methylbiphenyl-4-yl]-1,2,4-oxadiazol-3-yl}-7-methyl-1H-benzimidazole] | 38.1
22 | C[C@@H]1CCCCN1c1ccc(-c2nc(-c3ccc4[nH]cnc4c3)no2)cc1C(F)(F)F [Compound 28, 5-{5-[4-[(2R)-2-methylpiperidin-1-yl]-3-(trifluoromethyl)phenyl]-1,2,4-oxadiazol-3-yl}-1H-benzimidazole] | 23
23 | C[C@H]1CCCCN1c1ccc(-c2nc(-c3ccc4[nH]cnc4c3)no2)cc1C(F)(F)F [Compound 29, 5-{5-[4-[(2S)-2-methylpiperidin-1-yl]-3-(trifluoromethyl)phenyl]-1,2,4-oxadiazol-3-yl}-1H-benzimidazole] | 3
24 | CCc1ccccc1-c1ccc(-c2nc(-c3ccc4c(c3)CN(CC(=O)O)CC4)no2)cc1COC [Compound 30, [7-{5-[2′-ethyl-2-(methoxymethyl)biphenyl-4-yl]-1,2,4-oxadiazol-3-yl}-3,4-dihydroisoquinolin-2(1H)-yl]acetic acid] | 4.39
25 | CCc1ccccc1-c1ccc(-c2nc(-c3ccc4c(c3)CN(CCC(=O)O)CC4)no2)cc1COC [Compound 31, 3-[7-{5-[2′-ethyl-2-(methoxymethyl)biphenyl-4-yl]-1,2,4-oxadiazol-3-yl}-3,4-dihydroisoquinolin-2(1H)-yl]propanoic acid] | 2.52
26 | COCc1cc(-c2nc(-c3ccc4cc(C(=O)O)[nH]c4c3)no2)ccc1-c1ccccc1C [Compound 32, 6-{5-[2-(methoxymethyl)-2′-methylbiphenyl-4-yl]-1,2,4-oxadiazol-3-yl}-1H-indole-2-carboxylic acid] | 30.8
27 | CCC1CCCCN1c1ccc(-c2nc(-c3ccc4c(c3)CN(CCC(=O)O)CC4)no2)cc1COC (stereo not shown) [Compound 33, 3-[7-{5-[4-(2-ethylpiperidin-1-yl)-3-(methoxymethyl)phenyl]-1,2,4-oxadiazol-3-yl}-3,4-dihydroisoquinolin-2(1H)-yl]propanoic acid] | 0.89
28 | CCC1CCCCN1c1ccc(-c2nc(-c3ccc4c(c3)CN(CC(=O)O)CC4)no2)cc1COC (stereo not shown) [Compound 34, [7-{5-[4-(2-ethylpiperidin-1-yl)-3-(methoxymethyl)phenyl]-1,2,4-oxadiazol-3-yl}-3,4-dihydroisoquinolin-2(1H)-yl]acetic acid] | 1.93
